Test results published in patent publication US9732094B2, “Arylquinazolines” (Merck Patent GmbH, priority 2013, dated 2017).
Like-named read-outs stand apart in the source and are kept apart here. One block for each compound: values may come before it.

Key:
DNA-PK = DNA-PK (Homo sapiens (Human), UniProt P78527); test: DNA-PK assay (biochemical), flashplate 33P-ATP kinase assay
Procedure: A) DNA-PK Assay (Biochemical)
The kinase assay was carried out in streptavidin-coated […] microtitre flashplates. […] The reaction was stopped using 50 μl/well of 200 mM EDTA. After incubation for a further 30 min at room temperature, the liquid was removed. Each well was washed three times with 100 μl of 0.9% saline solution. A nonspecific reaction (blank value) was determined using 10 μM of an innate kinase inhibitor. The radioactivity measurement was carried out using a TopCount. IC50 values were calculated in RS1.

[1] = molecular target: DNA-PK phosphorylation at serine 2056 (Homo sapiens (Human), UniProt P78527); test: DNA-PK phosphorylation at serine 2056 (cellular), bleomycin-treated HCT116 cells, ELISA; type: cell-based; conditions: read-out: IC50 pDNA-PK
Procedure: HCT116 cells were cultivated at 37° C. and 10% CO2 in MEM alpha medium with 10% of foetal calf serum and 2 mM glutamine. The cells were detached from the base of the culture vessels with the aid of trypsin/EDTA, centrifuged off in centrifuge tubes, taken up in fresh medium, and the cell density was determined. 100,000 cells were sown in 1 ml of culture medium per cavity of a 24-well cell culture plate and cultivated overnight. Next day, 10 μM bleomycin (DNA intercalator and inductor of DNA double-strand breaks) and test substances in fresh culture medium were added to the cells, and these were cultivated for a further six hours. […] The 96-well ELISA plates were subsequently treated with a detection antibody (Abcam ab79444: total DNA-PK) and a streptavidin-HRP conjugate. The development of the enzymatic reaction was carried out with the aid of a chemiluminescent reagent, the chemiluminescence was measured with the aid of a Mithras LB940. The signals with the phospho-DNA-PK-specific antibody were standardised to the signal with the antibody against the total protein DNA-PKc. […] The DMSO control was used as blank.

Kv11.1 (hERG) = Kv11.1 (hERG) (Homo sapiens (Human), UniProt Q12809); test: Kv11.1 (hERG) ion channel activity (patch clamp assay), HEK293 cells transfected with hERG gene
[2] = cellular, HCT116 cells, 10 μM bleomycin, six hours
[3] = cellular DNA-PK phosphorylation at serine 2056, HCT116

Chain of Kv11.1 (hERG) (Q12809 whole entry): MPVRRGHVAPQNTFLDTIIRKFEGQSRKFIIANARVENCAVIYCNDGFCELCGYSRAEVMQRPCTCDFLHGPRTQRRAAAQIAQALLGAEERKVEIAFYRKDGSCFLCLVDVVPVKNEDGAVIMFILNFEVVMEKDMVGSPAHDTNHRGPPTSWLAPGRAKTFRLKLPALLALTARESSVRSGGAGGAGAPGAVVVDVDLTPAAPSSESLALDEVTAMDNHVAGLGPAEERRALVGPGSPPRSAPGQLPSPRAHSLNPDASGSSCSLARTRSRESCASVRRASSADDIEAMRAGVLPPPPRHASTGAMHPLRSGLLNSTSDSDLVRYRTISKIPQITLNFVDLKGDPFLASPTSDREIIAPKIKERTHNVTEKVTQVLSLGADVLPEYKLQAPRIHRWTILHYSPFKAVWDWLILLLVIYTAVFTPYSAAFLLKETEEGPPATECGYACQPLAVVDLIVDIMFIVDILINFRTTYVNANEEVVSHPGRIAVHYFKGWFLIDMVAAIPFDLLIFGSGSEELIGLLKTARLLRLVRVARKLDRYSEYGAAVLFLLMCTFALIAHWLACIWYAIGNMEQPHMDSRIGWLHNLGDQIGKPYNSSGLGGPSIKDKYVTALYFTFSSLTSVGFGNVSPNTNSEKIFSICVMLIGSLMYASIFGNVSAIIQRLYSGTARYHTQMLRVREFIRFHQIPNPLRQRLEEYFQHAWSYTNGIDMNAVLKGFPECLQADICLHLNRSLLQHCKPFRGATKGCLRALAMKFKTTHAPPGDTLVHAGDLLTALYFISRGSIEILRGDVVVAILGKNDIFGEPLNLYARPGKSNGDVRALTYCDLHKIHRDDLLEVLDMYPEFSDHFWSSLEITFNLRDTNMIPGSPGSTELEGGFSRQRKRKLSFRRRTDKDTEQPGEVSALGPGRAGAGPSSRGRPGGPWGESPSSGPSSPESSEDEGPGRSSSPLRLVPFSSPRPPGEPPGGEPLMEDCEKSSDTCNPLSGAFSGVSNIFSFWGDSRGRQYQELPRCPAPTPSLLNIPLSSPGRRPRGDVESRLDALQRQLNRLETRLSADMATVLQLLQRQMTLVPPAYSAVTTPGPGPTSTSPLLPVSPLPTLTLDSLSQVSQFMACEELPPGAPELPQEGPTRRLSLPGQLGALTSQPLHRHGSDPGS

IC50 (DNA-PK; Table 5): > 0.03 µM
Compound: Cc1ccc(C(C)(O)c2nccs2)cc1-c1ncnc2cc(N3CCOCC3)ccc12 (stereo not drawn) [Example 155, 1-[4-methyl-3-(7-morpholin-4-yl-quinazolin-4-yl)-phenyl)-1-thiazol-2-ylethanol]

IC50 [1, 2]: < 0.5 µM
IC50 (DNA-PK; enzymatic, 5 μM ATP): < 0.003 µM
Compound: OC(c1cccnn1)c1cc(-c2ncnc3cc(N4CCOCC4)ccc23)c(F)cc1Cl (single isomer, unassigned) [Example 30, [2-Chloro-4-fluoro-5-(7-morpholin-4-yl-quinazolin-4-yl)phenyl]-pyridazin-3-ylmethanol]

IC50 ([1]; Table 5, HCT116 cells): 5 to 10 µM
IC50 (DNA-PK; Table 5): 0.007 to 0.03 µM
Compound: OC(c1nccs1)c1cc(-c2ncnc3cc(N4CCOCC4)ccc23)ccc1F (stereo not drawn) [Example 170, [2-Fluoro-5-(7-morpholin-4-yl-quinazolin-4-yl)-phenyl]thiazol-2-yl-methanol]

IC50 [1, 3]: 5 to 10 µM
IC50 (DNA-PK; biochemical DNA-PK assay): 0.003 to 0.007 µM
Compound: Cn1cnc2ncnc(C(O)c3cc(-c4ncnc5cc(N6CCOCC6)ccc45)c(F)cc3F)c21 (stereo not drawn) [Example 386, [2,4-Difluoro-5-(7-morpholin-4-yl-quinazolin-4-yl)-phenyl]-(7-methyl-7H-purin-6-yl)-methanol]

Compound: COc1ccc([C@@H](O)c2cc(-c3ncnc4cc(N5CCOCC5)ccc34)c(F)cc2Cl)nn1 [Example 136, (S)-[2-Chloro-4-fluoro-5-(7-morpholin-4-yl-quinazolin-4-yl)-phenyl]-(6-methoxy-pyridazin-3-yl)-methanol]
Ki (Kv11.1 (hERG); read-out: Ki [Kv1.11 hERG], patch clamp, HEK293 transfected with hERG gene): > 25 µM

Compound: [2H]c1c(N2CCOCC2)cc2ncnc(-c3cc(C(O)c4ccc(OC)nn4)c(Cl)cc3F)c2c1[2H] (stereo not drawn) [Example 225, [2-Chloro-5-(5,6-dideuterio-7-morpholinylquinazolin-4-yl)-4-fluorophenyl]-(6-methoxypyridazin-3-yl)methanol]
Ki (Kv11.1 (hERG); Ki [Kv1.11 hERG], hERG patch clamp assay (cells without asterisk)): > 25 µM

IC50 [1, 2]: 0.5 to 5 µM
IC50 (DNA-PK; enzymatic, 5 μM ATP): < 0.003 µM
Compound: Cc1nccnc1C(O)c1cc(-c2ncnc3cc(N4CCOCC4)ccc23)c(F)cc1F (stereo not drawn) [Example 85]

IC50 (DNA-PK; Table 5): > 0.03 µM
Compound: COC(c1ccc(F)c(-c2ncnc3cc(N4CCOCC4)ccc23)c1)c1nccs1 (stereo not drawn) [Example 175, 4-[2-Fluoro-5-(methoxy-thiazol-2-ylmethyl)phenyl]-7-morpholin-4-yl-quinazoline]

IC50 (DNA-PK; Table 5): 0.007 to 0.03 µM
Compound: OC(c1cncc(-c2ncnc3cc(N4CCOCC4)ccc23)c1)c1nccs1 (stereo not drawn) [Example 183, [5-(7-Morpholin-4-ylquinazolin-4-yl)-pyndin-3-yl]thiazol-2-ylmethanol]

IC50 (DNA-PK; Table 5): 0.007 to 0.03 µM
Compound: COC(c1ccc(F)c(-c2ncnc3cc(N4CCOCC4)ccc23)c1)c1nccs1 (stereo not drawn) [Example 176, 4-[2-Fluoro-5-(-methoxy-thiazol-2-ylmethyl)phenyl]-7-morpholin-4-yl-quinazoline]

IC50 ([1]; Table 5, HCT116 cells): 0.5 to 5 µM
Compound: OC(c1ccc(F)c(-c2ncnc3cc(N4CCOCC4)sc23)c1)c1nccs1 (stereo not drawn) [Example 146, [4-fluoro-3-(6-morpholin-4-ylthieno[3,2-d]pyrimidin-4-yl)phenyl]thiazol-2-ylmethanol]

IC50 [1, 3]: < 0.5 µM
Compound: COc1nccnc1C(O)c1cc(-c2ncnc3cc(N4CCOCC4)cc(F)c23)c(F)cc1Cl (stereo not drawn) [Example 266, [2-Chloro-4-fluoro-5-(5-fluoro-7-morpholin-4-yl-quinazolin-4-yl)-phenyl]-(3-methoxy-pyrazin-2-yl)-methanol]

IC50 [1, 3]: 0.5 to 5 µM
IC50 (DNA-PK; biochemical DNA-PK assay): < 0.003 µM
Compound: OC(c1cc(-c2ncnc3cc(N4CCOCC4)ccc23)c(F)cc1F)c1ncnc2ccoc12 (stereo not drawn) [Example 446, [2,4-Difluoro-5-(7-morpholin-4-yl-quinazolin-4-yl)-phenyl]furo[3,2-d}-pyrimidin-4-yl-methanol]

IC50 (DNA-PK; Table 5): > 0.03 µM
Compound: CC(O)(c1cc(-c2ncnc3cc(N4CCOCC4)ccc23)ccn1)c1nccs1 (stereo not drawn) [Example 153, 1-[4-(7-Morpholin-4-ylquinazolin-4-yl)-pyridin-2-yl]-1-thiazol-2-ylethanol]

IC50 [1, 3]: 5 to 10 µM
IC50 (DNA-PK; biochemical DNA-PK assay): 0.007 to 0.03 µM
Compound: COc1nccnc1C(O)c1ccc(F)c(-c2ncnc3cc(N4CCOCC4)cc(F)c23)c1 (single isomer, unassigned) [Example 253, [4-Fluoro-3-(5-fluoro-7-morpholin-4-yl-quinazolin-4-yl)-phenyl]-(3-methoxy-pyrazin-2-yl)-methanol]

IC50 [1, 3]: < 0.5 µM
IC50 (DNA-PK; biochemical DNA-PK assay): 0.003 to 0.007 µM
Compound: OC(c1cc(-c2ncnc3cc(N4CCOCC4)ccc23)c(F)cc1F)c1ncnc2ccoc12 (stereo not drawn) [Example 445, [2,4-Difluoro-5-(7-morpholin-4-yl-quinazolin-4-yl)-phenyl]furo[3,2-d}-pyrimidin-4-yl-methanol]

IC50 ([1]; Table 5, HCT116 cells): 10 to 30 µM
IC50 (DNA-PK; Table 5): 0.007 to 0.03 µM
Compound: OC(c1cc(F)cc(-c2ncnc3cc(N4CCOCC4)ccc23)c1)c1nccs1 (stereo not drawn) [Example 169, [3-Fluoro-5-(7-morpholin-4-yl-quinazolin-4-yl)-phenyl]thiazol-2-yl-methanol]

IC50 [1, 3]: < 0.5 µM
Compound: COc1nccnc1C(O)c1cc(-c2ncnc3cc(N4CCOCC4)cc(F)c23)c(F)cc1Cl (stereo not drawn) [Example 250, [2-Chloro-4-fluoro-5-(5-fluoro-7-morpholin-4-yl-quinazolin-4-yl)-phenyl]-(3-methoxy-pyrazin-2-yl)-methanol]

IC50 [1, 2]: 5 to 10 µM
IC50 (DNA-PK; enzymatic, 5 μM ATP): < 0.003 µM
Compound: OC(c1ccc(F)c(-c2ncnc3cc(N4CCOCC4)ccc23)c1)c1nccs1 (stereo not drawn) [Example 213, [4-Fluoro-3-(7-morpholin-4-yl-quinazolin-4-yl)-phenyl]thiazol-2-ylmethanol]

IC50 (DNA-PK; Table 5): > 0.03 µM
Compound: CC(O)(c1cncc(-c2ncnc3cc(N4CCOCC4)ccc23)c1)c1nccs1 (stereo not drawn) [Example 151, 1-[5-(7-Morpholin-4-ylquinazolin-4-yl)-pyridin-3-yl]-1-thiazol-2-ylethanol]

IC50 (DNA-PK; Table 5): > 0.03 µM
Compound: CC(O)(c1nccs1)c1cccc(-c2ncnc3cc(N4CCOCC4)ccc23)c1F (stereo not drawn) [Example 162, 1-[2-Fluoro-3-(7-morpholin-4-yl-quinazolin-4-yl)-phenyl]-1-thiazol-2-ylethanol]

Compound: OC(c1ccc(F)c(-c2ncnc3cc(N4CCOCC4)ccc23)c1)c1nccnc1I (stereo not drawn) [Example 462, [4-Fluoro-3-(7-morpholin-4-yl-quinazolin-4-yl)-phenyl]-(3-iodo-pyrazin-2-yl)-methanol]
IC50 [1, 3]: < 0.5 µM
IC50 (DNA-PK; biochemical DNA-PK assay): < 0.003 µM

IC50 (DNA-PK; Table 5): 0.007 to 0.03 µM
Compound: OC(c1cncc(-c2ncnc3cc(N4CCOCC4)ccc23)c1)c1nccs1 (stereo not drawn) [Example 184, [5-(7-Morpholin-4-ylquinazolin-4-yl)-pyridin-3-yl]thiazol-2-ylmethanol]

Compound: c1nc(N2CCCCC2)c2scc(N3CCOCC3)c2n1 [Example 174, 7-Morpholin-4-yl-4-piperidin-1-yl-thieno[3,2-d}-pyrimidine]
IC50 ([1]; Table 5, HCT116 cells): 10 to 30 µM
IC50 (DNA-PK; Table 5): 0.007 to 0.03 µM

IC50 [1, 3]: 0.5 to 5 µM
IC50 (DNA-PK; biochemical DNA-PK assay): 0.007 to 0.03 µM
Compound: Cn1cnc2ncnc(C(O)c3cc(-c4ncnc5cc(N6CCOCC6)ccc45)c(F)cc3F)c21 (stereo not drawn) [Example 431, [2,4-Difluoro-5-(7-morpholin-4-yl-quinazolin-4-yl)-phenyl]-(7-methyl-7H-purin-6-yl)-methanol]

IC50 (DNA-PK; Table 5): > 0.03 µM
Compound: CC(O)(c1cc(-c2ncnc3cc(N4CCOCC4)ccc23)cs1)c1nccs1 (stereo not drawn) [Example 156, 1-[4-(7-Morpholin-4-ylquinazolin-4-yl)-thiophen-2-yl]-1-thiazol-2-ylethanol]

IC50 (DNA-PK; Table 5): > 0.03 µM
Compound: OC(c1ccc(-c2ncnc3cc(N4CCOCC4)ccc23)s1)c1nccs1 (stereo not drawn) [Example 160, [5-(7-Morpholin-4-ylquinazolin-4-yl)-thiophen-2-yl]-thiazol-2-yl-methanol]

IC50 [1, 2]: 10 to 30 µM
IC50 (DNA-PK; enzymatic, 5 μM ATP): < 0.003 µM
Compound: OC(c1ccc(F)c(-c2ncnc3cc(N4CCOCC4)ccc23)c1)c1nccs1 (stereo not drawn) [Example 212, [4-Fluoro-3-(7-morpholin-4-yl-quinazolin-4-yl)-phenyl]thiazol-2-ylmethanol]

IC50 [1, 2]: 5 to 10 µM
IC50 (DNA-PK; enzymatic, 5 μM ATP): 0.003 to 0.007 µM
Compound: COc1ccc(C(O)c2cc(-c3ncnc4cc(N5CCOCC5)sc34)c(F)cc2Cl)nn1 (single isomer, unassigned) [Example 127, [2-Chloro-4-fluoro-5-(6-morpholin-4-ylthieno[3,2-d}-pyrimidin-4-yl)-phenyl]-(6-methoxy-pyridazin-3-yl)-methanol]

IC50 (DNA-PK; Table 5): > 0.03 µM
Compound: OC(c1csc(-c2ncnc3cc(N4CCOCC4)ccc23)c1)c1nccs1 (stereo not drawn) [Example 164, [5-(7-Morpholin-4-ylquinazolin-4-yl)-thiophen-3-yl]-thiazol-2-yl-methanol]

IC50 ([1]; Table 5, HCT116 cells): 5 to 10 µM
IC50 (DNA-PK; Table 5): 0.007 to 0.03 µM
Compound: OC(c1cccc(-c2ncnc3cc(N4CCOCC4)sc23)c1)c1nccs1 (stereo not drawn) [Example 182, [3-(6-Morpholin-4-ylthieno[3,2-d}-pyrimidin-4-yl)-phenyl]thiazol-2-yl-methanol]

IC50 ([1]; Table 5, HCT116 cells): 10 to 30 µM
IC50 (DNA-PK; Table 5): 0.007 to 0.03 µM
Compound: OC(c1cccc(-c2ncnc3cc(N4CCOCC4)ccc23)c1)(c1nccs1)C(F)(F)F (stereo not drawn) [Example 172, 2,2,2-Trifluoro-1-[3-(7-morpholin-4-yl-quinazolin-4-yl)-phenyl]-1-thiazol-2-ylethanol]
